IC50 data for 11 molecules are collected here from patent publication US12410171B2, “Tropomyosin receptor kinase (TRK) degradation compounds and methods of use” (Cullgen (Shanghai), Inc., priority 2020, dated 2025).

This assay deals with KM12 cells. The assay can be described thus: KM12 cell viability (CellTiter-Glo). It is filed as cell-based. To be noted: Homo sapiens, 72 h, KM12 cell viability, CellTiter-Glo, read-out: IC50. How it is done: KM12 or H358 cells were treated with 1000 nM CPD-053 following an 8-point 3-fold serial dilution for 3 days.
KM12 cells seeded in 96-well plates were treated with heterobifunctional compounds following a 11-point 3-fold serial dilution for 3 days.
KM12, H358, HEL, SU-DHL-1 and other cells were cultured at 37° C. with 5% CO2 in RPMI 1640 Medium supplemented with 10% fetal bovine serum. Cells were authenticated using the short tandem repeat (STR) assays. Mycoplasma test results were negative. Stable cell lines were established by lentivirus transduction, selected and maintained in medium containing 1 μg/mL puromycin (Beyotime Biotechnology).
Cells were seeded at a density of 5000 cells per well in 96-well assay plates and treated with test compounds following a 12-point 2-fold serial dilution or a 8-point 3-fold dilution, or 11-point 3-fold serial dilution. Three days later, cell viability was determined using the CellTiter-Glo assay kit (Promega) according to the manufacturer's instructions. The dose-response curves were determined and IC50 values were calculated using the GraphPad Prism software following a nonlinear regression (least squares fit) method.

The mark [1] stands for this setting: 11-point 3-fold serial dilution, 3 days.

For orientation: IC50 means the concentration at which inhibition is half-maximal.

Like-named read-outs stand apart in the source and are kept apart here.

Turning to `Cc1ncsc1-c1ccc(CNC(=O)[C@@H]2C[C@@H](O)CN2C(=O)[C@@H](NC(=O)COCCOCCOCCOCCOCC(=O)N2CCN(c3cccc(-c4cnc5ccc(N6CCCC6c6cccc(F)c6)nn45)n3)CC2)C(C)(C)C)cc1` (stereo partly drawn) [CPD-003, (25,4R)-1-((S)-2-(tert-butyl)-20-(4-(6-(6-((R)-2-(3-Fluorophenyl)pyrrolidin-1-yl)imidazo[1,2-b]pyridazin-3-yl)pyridin-2-yl)piperazin-1-yl)-4,20-dioxo-6,9,12,15,18-pentaoxa-3-azaicosanoyl)-4-hydroxy-N-(4-(4-methylthiazol-5-yl)benzyl)pyrrolidine-2-carboxamide], the IC50 (three days treatment) was over 1000 nM.

For `Cc1ncsc1-c1ccc(CNC(=O)[C@@H]2C[C@@H](O)CN2C(=O)[C@@H](NC(=O)CCOCCOCCOCCOCCOCCC(=O)N2CCN(c3cccc(-c4cnc5ccc(N6CCCC6c6cccc(F)c6)nn45)n3)CC2)C(C)(C)C)cc1` (stereo partly drawn) [CPD-005, (25,4R)-1-((S)-2-(tert-butyl)-22˜ (4-(6-(6-((R)-2˜ (3-Fluorophenyl)pyrrolidin-1-yl)imidazo[1,2-b]pyridazin-3-yl)pyridin-2-yl)piperazin-1-yl)-4,22-dioxo-7,10,13,16,19-pentaoxa-3-azadocosanoyl)-4-hydroxy-N-(4-(4-methylthiazol-5-yl)benzyl)pyrrolidine-2-carboxamide], the IC50 (three days treatment) is over 1000 nM.

With `Cc1ncsc1-c1ccc(CNC(=O)[C@@H]2CC(O)CN2C(=O)[C@@H](NC(=O)CCOCCOCCOCCOCCOCCC(=O)N2CCN(c3ccc(C(=O)Nc4n[nH]c5ccc(Cc6cc(F)cc(F)c6)cc45)c(NC4CCOCC4)c3)CC2)C(C)(C)C)cc1` (stereo partly drawn) [CPD-043, (28,4R)-1-((S)-2-(tert-butyl)-22-(4-(4-((5-(3,5-Difluorobenzyl)-1H-indazol-3-yl)carbamoyl)-3-((tetrahydro-2H-pyran-4-yl)amino)phenyl)piperazin-1-yl)-4,22-dioxo-7,10,13,16,19-pentaoxa-3-azadocosanoyl)-4-hydroxy-N-(4-(4-methylthiazol-5-yl)benzyl)pyrrolidine-2-carboxamide], the IC50 (three days treatment) is over 1000 nM.

Consider `O=C1CCC(N2C(=O)c3ccc(NCC(=O)N4CCC(Nc5cccc(C(=O)Nc6cnn7ccc(N8CCC[C@@H]8c8cc(F)ccc8F)nc67)n5)CC4)cc3C2=O)C(=O)N1` (stereo partly drawn) [CPD-460, N-(5-((R)-2-(2,5-difluorophenyl)pyrrolidin-1-yl)pyrazolo[1,5-a]pyrimidin-3-yl)-6-((1-((2-(2,6-dioxopiperidin-3-yl)-1,3-dioxoisoindolin-5-yl)glycyl)piperidin-4-yl)amino)picolinamide], for which, under setting [1], the IC50 is 32 nM.

With `Cc1ncsc1-c1ccc(CNC(=O)[C@@H]2C[C@@H](O)CN2C(=O)[C@@H](NC(=O)CCC(=O)N2CCC(Nc3cccc(C(=O)Nc4cnn5ccc(N6CCC[C@@H]6c6cc(F)ccc6F)nc45)n3)CC2)C(C)(C)C)cc1` [CPD-461, N-(5-((R)-2-(2,5-difluorophenyl)pyrrolidin-1-yl)pyrazolo[1,2-a]pyrimidin-3-yl)-6-((1-(4-(((S)-1-((2S,4R)-4-hydroxy-2-((4-(4-methylthiazol-5-yl)benzyl)carbamoyl)pyrrolidin-1-yl)-3,3-dimethyl-1-oxobutan-2-yl)amino)-4-oxobutanoyl)piperidin-4-yl)amino)picolinamide], the half-inhibitory concentration (IC50) under setting [1] is over 1000 nM.

On to `Cc1ncsc1-c1ccc(CNC(=O)[C@@H]2C[C@@H](O)CN2C(=O)[C@@H](NC(=O)CCCCC(=O)N2CCC(Nc3cccc(C(=O)Nc4cnn5ccc(N6CCC[C@@H]6c6cc(F)ccc6F)nc45)n3)CC2)C(C)(C)C)cc1` [CPD-462, N-(5-((R)-2-(2,5-difluorophenyl)pyrrolidin-1-yl)pyrrazolo[1,5-a]pyrimidin-3-yl)-6-((1-(6-(((S)-1-((2S,4R)-4-hydroxy-2-((4-(4-methylthiazol-5-yl)benzyl)carbamoyl)pyrrolidin-1-yl)-3,3-dimethyl-1-oxobutan-2-yl)amino)-6-oxohexanoyl)piperidin-4-yl)amino)picolinamide], for which, under setting [1], the IC50 is over 1000 nM.

Consider `Cc1ncsc1-c1ccc(CNC(=O)[C@@H]2C[C@@H](O)CN2C(=O)[C@@H](NC(=O)CCCCCCC(=O)N2CCC(Nc3cccc(C(=O)Nc4cnn5ccc(N6CCC[C@@H]6c6cc(F)ccc6F)nc45)n3)CC2)C(C)(C)C)cc1` [CPD-463, N-(5-((R)-2-(2,5-difluorophenyl)pyrrolidin-1-yl)pyrazolo[1,5-a]pyrimidin-3-yl)-6-((1-(8-(((S)-1-((2S,4R)-4-hydroxy-2-((4-(4-methylthiazol-5-yl)benzyl)carbamoyl)pyrrolidin-1-yl)-3,3-dimethyl1-oxobutan-2-yl)amino)-8-oxooctanoyl)piperidin-4-yl)amino)picolinamide], for which the IC50 under setting [1] was 443 nM.

For `Cc1ncsc1-c1ccc(CNC(=O)[C@@H]2C[C@@H](O)CN2C(=O)[C@@H](NC(=O)CCCCCCCCC(=O)N2CCC(Nc3cccc(C(=O)Nc4cnn5ccc(N6CCC[C@@H]6c6cc(F)ccc6F)nc45)n3)CC2)C(C)(C)C)cc1` [CPD-464, N-(5-((R)-2-(2,5-difluorophenyl)pyrrolidin-1-yl)pyrazolo[1,5-a]pyrimidin-3-yl)-6-((1-(10-(((S)-1-((2S,4R)-4-hydroxy-2-((4-(4-methylthiazol-5-yl)benzyl)carbamoyl)pyrrolidin-1-yl)-3,3-dimethyl-1-oxobutan-2-yl)amino)-10-oxodecanoyl)piperidin-4-yl)amino)picolinamide], under setting [1], the IC50 was determined as 87 nM.

As for `Cc1ncsc1-c1ccc(CNC(=O)[C@@H]2C[C@@H](O)CN2C(=O)[C@@H](NC(=O)CCOCCC(=O)N2CCC(Nc3cccc(C(=O)Nc4cnn5ccc(N6CCC[C@@H]6c6cc(F)ccc6F)nc45)n3)CC2)C(C)(C)C)cc1` [CPD-465, N-(5-((R)-2-(2,5-difluorophenyl)pyrrolidin-1-yl)pyrazolo[1,5-a]pyrimidin-3-yl)-6-((1-(3-(3-(((S)-1-((2S,4R)-4-hydroxy-2-((4-(4-methylthiazol-5-yl)benzyl)carbamoyl)pyrrolidin-1-yl)-3,3-dimethyl-1-oxobutan-2-yl)amino)-3-oxopropoxy)propanoyl)piperidin-4-yl)amino)picolinamide], the IC50 under setting [1] worked out at 2020 nM.

`Cc1ncsc1-c1ccc(CNC(=O)[C@@H]2C[C@@H](O)CN2C(=O)[C@@H](NC(=O)CCOCCOCCC(=O)N2CCC(Nc3cccc(C(=O)Nc4cnn5ccc(N6CCC[C@@H]6c6cc(F)ccc6F)nc45)n3)CC2)C(C)(C)C)cc1` [CPD-466]: the IC50 under setting [1] was determined as 253 nM.

Take `Cc1ncsc1-c1ccc(CNC(=O)[C@@H]2C[C@@H](O)CN2C(=O)[C@@H](NC(=O)CCOCCOCCOCCC(=O)N2CCC(Nc3cccc(C(=O)Nc4cnn5ccc(N6CCC[C@@H]6c6cc(F)ccc6F)nc45)n3)CC2)C(C)(C)C)cc1` [CPD-467, N-(5-((R)-2-(2,5-difluorophenyl)pyrrolidin-1-yl)pyrazolo[1,5-a]pyrimidin-3-yl)-6-((1-((S)-15-((2S,4R)-4-hydroxy-2-((4-(4-methylthiazol-5-yl)benzyl)carbamoyl)pyrrolidine-1-carbonyl)-16,16-dimethyl-13-oxo-4,7,10-trioxa-14-azaheptadecanoyl)piperidin-4-yl)amino)picolinamide]: under setting [1], the IC50 turned out to be 343 nM.
